Biological target: human TMEM16A (TMEM16Aabc variant) (Homo sapiens, UniProt Q5XXA6, DEL476-501, form not given)
Assay: Automated whole-cell patch clamp (Qpatch) TMEM16A potentiator assay in FRT cells stably expressing human TMEM16A
Assay type: cell-based
Details: for % Potentiation @ 3.33 μM Avg: 3.33 μM solution of test compound, percentage increase of baseline TMEM16A current; for EC50: calculated EC50, Qpatch TMEM16A current at +70 mV
Procedure, shortened: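 FRT cells stably expressing human TMEM16Aabc were recorded by automated whole-cell patch clamp, with intracellular Ca2+ buffered for ~EC20 activation, holding −70 mV and step to +70 mV at 0.05 Hz. Compound was applied cumulatively, 5 min per concentration. Peak current increase as % of baseline was fitted to give EC50 and maximum efficacy.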

Chain of human TMEM16A (TMEM16Aabc variant) (Q5XXA6 with tags, fused parts or gaps DEL476-501): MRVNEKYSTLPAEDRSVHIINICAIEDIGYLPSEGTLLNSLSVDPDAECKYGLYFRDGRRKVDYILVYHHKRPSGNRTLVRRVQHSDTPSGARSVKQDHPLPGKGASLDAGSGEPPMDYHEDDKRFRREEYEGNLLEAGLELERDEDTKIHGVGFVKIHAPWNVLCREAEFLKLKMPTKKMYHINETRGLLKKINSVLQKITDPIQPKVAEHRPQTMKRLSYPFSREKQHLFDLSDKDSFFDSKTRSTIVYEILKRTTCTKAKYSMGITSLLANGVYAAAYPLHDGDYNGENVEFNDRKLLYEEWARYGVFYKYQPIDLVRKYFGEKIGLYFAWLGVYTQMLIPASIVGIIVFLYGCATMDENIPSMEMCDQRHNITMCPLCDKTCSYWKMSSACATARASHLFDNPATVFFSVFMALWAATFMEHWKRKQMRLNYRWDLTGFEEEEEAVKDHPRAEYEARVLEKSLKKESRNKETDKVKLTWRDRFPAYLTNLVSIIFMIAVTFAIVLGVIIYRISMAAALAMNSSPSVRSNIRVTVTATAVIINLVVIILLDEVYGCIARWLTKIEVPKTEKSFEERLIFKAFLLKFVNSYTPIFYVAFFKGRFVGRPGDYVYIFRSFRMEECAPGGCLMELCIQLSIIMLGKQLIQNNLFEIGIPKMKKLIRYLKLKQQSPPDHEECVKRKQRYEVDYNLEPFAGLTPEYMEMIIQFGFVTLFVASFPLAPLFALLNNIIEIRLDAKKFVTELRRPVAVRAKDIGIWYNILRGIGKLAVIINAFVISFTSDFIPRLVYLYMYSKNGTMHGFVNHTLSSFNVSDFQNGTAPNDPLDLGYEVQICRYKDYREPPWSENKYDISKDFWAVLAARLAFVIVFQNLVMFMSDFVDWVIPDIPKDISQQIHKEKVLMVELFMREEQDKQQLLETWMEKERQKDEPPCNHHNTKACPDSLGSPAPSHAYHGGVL

| SMILES | % Potentiation @ 3.33 μM Avg [%] | EC50 [nM] |
| --- | --- | --- |
| O=C(Cc1cc(Cl)ccc1O)Nc1ccnc(C(=O)NC2CCCCC2)c1 [Example 1.10, 4-[[2-(5-Chloro-2-hydroxy-phenyl)acetyl]amino]-N-cyclohexyl-pyridine-2-carboxamide] | 200 | 80 |
| CC(C)(C)NC(=O)c1cc(NC(=O)Cc2ccccc2C2CC2)ccn1 [Example 58, N-tert-Butyl-4-[[2-(2-cyclopropylphenyl)acetyl]amino]pyridine-2-carboxamide] | 217 | – |
| COc1ccccc1CNC(=O)Nc1ccnc(C(=O)NC(C)(C)C)c1 [Example 65.1, N-tert-Butyl-4-[(2-methoxyphenyl)methylcarbamoylamino]pyridine-2-carboxamide] | 75 | 470 |
| CC(C)(C)NC(=O)c1cc(NC(=O)Cc2cc(Cl)c(CN3CCCC3)cc2O)ccn1 [Example 27, N-tert-Butyl-4-[[2-[5-chloro-2-hydroxy-4-(pyrrolidin-1-ylmethyl)phenyl]acetyl]amino]pyridine-2-carboxamide] | 90 | – |
| CC(C)(C)NC(=O)c1ccc(O)c(NC(=O)Cc2cc(Cl)ccc2O)c1 [Example 14, N-tert-Butyl-3-[[2-(5-chloro-2-hydroxy-phenyl)acetyl]amino]-4-hydroxy-benzamide] | 58 | – |
| CC(C)(C)NC(=O)c1cc(NC(=O)Cc2cccc(F)c2)ccn1 [Example 5.9, N-tert-Butyl-4-[[2-(3-fluorophenyl)acetyl]amino]pyridine-2-carboxamide] | 126 | 1130 |
| COc1ccc(Cl)c(CC(=O)Nc2ccnc(C(=O)NC3(C#N)CC3)c2)c1 [Example 24, 4-[[2-(2-Chloro-5-methoxy-phenyl)acetyl]amino]-N-(1-cyanocyclopropyl)pyridine-2-carboxamide] | 68 | – |
| CC(C)(NC(=O)c1cc(NC(=O)Cc2cc(Cl)ccc2O)ccn1)c1ccccn1 [Example 35.9, 4-[[2-(5-Chloro-2-hydroxy-phenyl)acetyl]amino]-N-[1-methyl-1-(2-pyridyl)ethyl]pyridine-2-carboxamide] | 455 | 540 |
| CC1(NC(=O)c2cccc(NC(=O)Cc3cc(Cl)ccc3O)c2)CCC1 [Example 7.10, 3-[[2-(5-Chloro-2-hydroxy-phenyl)acetyl]amino]-N-(1-methylcyclobutyl)benzamide] | 218 | 360 |
| CC(C)(C)NC(=O)c1cc(NC(=O)Cc2cc(O)ccc2Cl)ccn1 [Example 3.16b, N-tert-Butyl-4-[[2-(2-chloro-5-hydroxy-phenyl)acetyl]amino]pyridine-2-carboxamide] | 167 | 170 |
| C#CC(C)(C)NC(=O)c1cc(NC(=O)CC2OCCc3ccccc32)ccn1 (stereo not shown) [Example 5.33, N-(1,1-Dimethylprop-2-ynyl)-4-[(2-isochroman-1-ylacetyl)amino]pyridine-2-carboxamide] | 49 | – |
| O=C(Cc1ccc2ncccc2c1)Nc1ccnc(C(=O)NC2CCOCC2)c1 [Example 63, 4-[[2-(6-Quinolyl)acetyl]amino]-N-tetrahydropyran-4-yl-pyridine-2-carboxamide] | 37 | – |
| CC(C)(NC(=O)c1cc(NC(=O)Cc2cc(Cl)ccc2O)ccn1)c1ccccc1 [Example 94, 4-[[2-(5-Chloro-2-hydroxy-phenyl)acetyl]amino]-N-(1-methyl-1-phenyl-ethyl) pyridine-2-carboxamide] | 516 | 340 |
| CC(C)(C)NC(=O)c1cc(NC(=O)Cc2ccccc2OC(F)F)ccn1 [Example 23.4, N-tert-Butyl-4-[[2-[2-(difluoromethoxy)phenyl]acetyl]amino]pyridine-2-carboxamide] | 115 | – |
| C#CC(C)(C)NC(=O)c1cc(NC(=O)Cc2cc(F)ccc2O)ccn1 [Example 81.3, N-(1,1-Dimethylprop-2-ynyl)-4-[[2-(5-fluoro-2-hydroxy-phenyl)acetyl]amino] pyridine-2-carboxamide] | 129 | 40 |
| O=C(Cc1cc(Cl)ccc1O)Nc1ccnc(C(=O)Nc2ccccc2)c1 [Example 35.16, 4-[[2-(5-Chloro-2-hydroxy-phenyl)acetyl]amino]-N-phenyl-pyridine-2-carboxamide] | 85 | 330 |
| O=C(Cc1cc(Cl)ccc1O)Nc1ccnc(C(=O)NC23CC4CC(CC(C4)C2)C3)c1 [Example 1.3, N-(1-Adamantyl)-4-[[2-(5-chloro-2-hydroxy-phenyl)acetyl]amino]pyridine-2-carboxamide] | 233 | 240 |

| SMILES | % Potentiation @ 3.33 μM Avg [%] | EC50 [nM] |
| --- | --- | --- |
| COc1ccc(O)c(CC(=O)Nc2ccnc(C(=O)NC(C)(C)C)c2)c1 [Example 3.8b, N-tert-Butyl-4-[[2-(2-hydroxy-5-methoxy-phenyl)acetyl]amino]pyridine-2-carboxamide] | 203 | 300 |
| O=C(Cc1cc(Cl)ccc1O)Nc1ccnc(C(=O)N[C@H]2CCCC[C@H]2CO)c1 [Example 35.2, 4-[[2-(5-Chloro-2-hydroxy-phenyl)acetyl]amino]-N-[(1s,2r)-2-(hydroxymethyl)cyclohexyl]pyridine-2-carboxamide] | 300 | 610 |
| CC(C)(C)c1ccc(CC(=O)Nc2ccnc(C(=O)N[C@H]3CCC[C@@H]3O)c2)cc1O [Example 93.2, 4-[2-(4-tert-butyl-3-hydroxyphenyl)acetamido]-N-[(1S,2S)-2-hydroxycyclopentyl]pyridine-2-carboxamide] | 220 | 40 |
| CC(C)(C)NC(=O)c1cccc(NC(=O)Cc2ccccc2O)c1 [Example 4.3, N-tert-Butyl-3-[[2-(2-hydroxyphenyl)acetyl]amino] benzamide] | 151 | 1530 |
| CC(C)(C)NC(=O)c1cc(NC(=O)Cc2cc(O)cc(Cl)c2)ccn1 [Example 3.17b, N-tert-Butyl-4-[[2-(3-chloro-5-hydroxy-phenyl)acetyl]amino]pyridine-2-carboxamide] | 227 | 120 |
| CC(C)(C)NC(=O)c1cc(NC(=O)Cc2cc(C#N)ccc2O)ccn1 [Example 6, N-tert-Butyl-4-[[2-(5-cyano-2-hydroxy-phenyl)acetyl]amino]pyridine-2-carboxamide] | 162 | 1140 |
| CC(C)(C)NC(=O)c1cc(NC(=O)NCc2cccc(O)c2)ccn1 [Example 65.3, N-tert-Butyl-4-[(3-hydroxyphenyl)methylcarbamoylamino]pyridine-2-carboxamide] | 33 | – |
| CC(C)(C#N)NC(=O)c1cc(NC(=O)c2ccnn2CC(F)(F)F)ccn1 [Example 83.19, N-(1-Cyano-1-methyl-ethyl)-4-[[2-(2,2,2-trifluoroethyl)pyrazole-3-carbonyl]amino]pyridine-2-carboxamide] | 28 | – |
| CC(C)NC(=O)c1cc(NC(=O)Cc2cc(F)ccc2O)ccn1 [Example 81.2, 4-[[2-(5-Fluoro-2-hydroxy-phenyl)acetyl]amino]-N-isopropyl-pyridine-2-carboxamide] | 103 | 420 |
| CCCC(C)(C)NC(=O)c1cc(NC(=O)Cc2cc(Cl)ccc2O)ccn1 [Example 7.2, 4-[[2-(5-Chloro-2-hydroxy-phenyl)acetyl]amino]-N-(1,1-dimethylbutyl)pyridine-2-carboxamide] | 203 | 260 |
| CC(C)(C#N)NC(=O)c1cc(NC(=O)c2ccsc2)ccn1 [Example 83, N-(1-Cyano-1-methyl-ethyl)-4-(thiophene-3-carbonylamino)pyridine-2-carboxamide] | 6 | – |
| CC(C)(CCNC(=O)C(C)(C)C)NC(=O)c1cc(NC(=O)Cc2cc(Cl)ccc2O)ccn1 [Example 45, 4-[[2-(5-Chloro-2-hydroxy-phenyl)acetyl]amino]-N-[3-(2,2-dimethylpropanoylamino)-1,1-dimethyl-propyl]pyridine-2-carboxamide] | 151 | – |
| O=C(Cc1cc(F)ccc1F)Nc1ccnc(C(=O)NC23CCC(F)(C2)C3)c1 [Example 77.1, 4-[[2-(2,5-Difluorophenyl)acetyl]amino]-N-(4-fluoro-1-bicyclo[2.1.1]hexanyl) pyridine-2-carboxamide] | 151 | 540 |
| CC(C)(C#N)NC(=O)c1cc(NC(=O)C2(Cc3ccccc3)CC2)ccn1 [Example 83.11, 4-[(1-Benzylcyclopropanecarbonyl)amino]-N-(1-cyano-1-methyl-ethyl)pyridine-2-carboxamide] | 13 | – |
| Nc1cccc(CNC(=O)c2cc(NC(=O)Cc3cc(Cl)ccc3O)ccn2)n1 [Example 32, N-[(6-Amino-2-pyridyl)methyl]-4-[[2-(5-chloro-2-hydroxy-phenyl)acetyl]amino]pyridine-2-carboxamide] | 171 | – |
| CC(C)(C)NC(=O)c1cc(NC(=O)Cc2cc(CCCO)ccc2O)ccn1 [Example 75, N-tert-Butyl-4-[[2-[2-hydroxy-5-(3-hydroxypropyl)phenyl]acetyl]amino]pyridine-2-carboxamide] | 34 | – |

Source: patent US20200361871A1 (Enterprise Therapeutics Ltd., priority 2018, published 2020)
